Laboratory results from EP2276483B1, “SOLID FORMS COMPRISING (+)-2-[1-(3-ETHOXY-4-METHOXYPHENYL)-2-METHYLSULFONYLETHYL]-4-ACETYLAMINOISOINDOLINE-1,3-DIONE, COMPOSITIONS THEREOF, AND USES THEREOF” (CELGENE CORPORATION, priority 2008, dated 2009).

What was measured:
[1] = biological target: PDE3 from human platelets (Homo sapiens, UniProt Q14432); assay: PDE3 enzyme assay; assay type: biochemical
[2] = biological target: PDE7 purified from Hut78 human T cells (Homo sapiens, UniProt Q13946); assay: PDE7 enzyme assay; assay type: biochemical
Procedure: PDE7 is a cAMP-selective PDE expressed mainly in T cells and in skeletal muscle. T cell-derived cytokines such as IL-2 and IFN-γ are potentially regulatable via PDE7 inhibition. […] Compounds were tested against the PDE7 preparation in the presence of 10 nM cAMP as described for PDE4 in Table 1.

[3] = test system: conscious ferret; assay: Emesis and behavioral changes in conscious ferret; assay type: in vivo, ferrets (Mustela Pulorius Euro); conditions: for Ataxia / Backward walking / Flattened posture / Lip licking / Mouth clawing / Panting / Retches / Salivation / Vomits: severity (number of animals that responded)
Procedure: The conscious ferret model has been used to investigate anti-inflammatory, emetic and behavioral effects of PDE4 inhibitors when administered by the oral (p.o.) route. From these experiments, a therapeutic index (TI) for each PDE4 inhibitor may be determined. The TI has been calculated by dividing the threshold dose for causing emetic episodes and behavioral changes by the anti-inflammatory dose (dose that causes 50% inhibition of the LPS-induced neutrophilia).
PDE4 inhibitors were administered orally (p.o.), at doses initially of […], but subsequently up to 30 mg/kg in order to establish whether the TI was 10 or higher, and/or at lower doses to establish the minimum dose to cause 50% inhibition of neutrophilia. Ferrets were fasted overnight but allowed free access to water. The animals were orally dosed with vehicle or PDE4 inhibitor using a 15 cm dosing needle that was passed down the back of the throat into the oesophagus. After dosing, the animals were returned to holding cages fitted with Perspex doors to allow observation, and given free access to water. After dosing, the animals were constantly observed and any emesis or behavioral changes were recorded. The animals were allowed access to food 60 to 90 minutes after p.o. dosing.
Thirty minutes after p.o. dosing with compound or vehicle control, the ferrets were placed into sealed Perspex containers and exposed to an aerosol of LPS (100 µg/ml) for 10 minutes. Aerosols of LPS were generated by a nebulizer (DeVilbiss, USA) and this was directed into the Perspex exposure chamber. Following a 10 minute exposure period, the animals were returned to the holding cages and allowed free access to water, and at a later stage, food. Observation continued for a period of at least 2.5 hours post p.o. dosing and emetic episodes and behavioral changes were recorded.
2. Emetic episodes - the number of vomits and retches were counted.
3. Behavioral changes - the following behavioral effects were noted: salivation, panting, mouth clawing, flattened posture, ataxia, arched back and backward walking. Any behavioral changes were semi-quantified by applying a severity rating (mild, moderate or severe).
4. The TI was calculated as the highest dose found to not cause emetic episodes divided by the lowest dose found to inhibit pulmonary neutrophilia by 50% or more.
Numbers in parentheses refer to the number of animals that responded. The numbers of animals in each group range from 4 to 22.
From these experiments, a therapeutic index (TI) was determined for each compound by dividing the threshold dose for inducing emetic episodes by the ED50 value for inhibiting the pulmonary neutrophilia. […] Table 4. Summary of the effective doses (ED50) for inhibition of LPS-induced pulmonary neutrophilia and induction of emesis and the therapeutic index derived from these values

[4] = test system: subjects with moderate to severe plaque-type psoriasis; assay: Phase 2 randomized double-blind placebo-controlled study in moderate to severe plaque-type psoriasis; assay type: in vivo, human
Procedure: This phase 2, multicenter, randomized, double-blind, placebo-controlled, parallel-group, dose-comparison study evaluated the efficacy and safety of Compound A in subjects with moderate to severe plaque-type psoriasis who were candidates for systemic therapy.
This study included a 12-week treatment phase followed by a 4-week observational follow-up phase. A total of 260 subjects were randomized to receive Compound A 20 mg BID, Compound A 20 mg QD, or placebo for 12 weeks. The primary endpoint for this study was the proportion of subjects treated with Compound A who achieved a 75% reduction in Psoriasis Area and Severity Index score ("PASI-75") at week 12/last treatment in reference to the baseline visit. Last treatment is defined as the last PASI assessment completed during the 12-week treatment phase.

[5] = 20 mg BID, week 12/last treatment

PDE7 purified from Hut78 human T cells, sequence (Q13946 whole entry): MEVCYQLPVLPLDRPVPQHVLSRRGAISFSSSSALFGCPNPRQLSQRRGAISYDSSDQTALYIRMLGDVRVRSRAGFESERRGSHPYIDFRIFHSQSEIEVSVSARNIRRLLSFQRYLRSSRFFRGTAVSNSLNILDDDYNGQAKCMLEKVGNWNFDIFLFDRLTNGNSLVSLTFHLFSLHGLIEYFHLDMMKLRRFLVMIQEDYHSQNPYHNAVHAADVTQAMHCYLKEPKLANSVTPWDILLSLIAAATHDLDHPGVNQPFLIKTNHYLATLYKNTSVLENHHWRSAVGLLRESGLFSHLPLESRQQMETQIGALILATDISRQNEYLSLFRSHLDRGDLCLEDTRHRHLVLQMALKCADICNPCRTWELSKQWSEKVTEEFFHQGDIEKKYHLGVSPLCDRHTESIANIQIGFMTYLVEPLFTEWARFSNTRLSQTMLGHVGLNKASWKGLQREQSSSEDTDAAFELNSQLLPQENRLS
PDE3 from human platelets, sequence (Q14432 whole entry): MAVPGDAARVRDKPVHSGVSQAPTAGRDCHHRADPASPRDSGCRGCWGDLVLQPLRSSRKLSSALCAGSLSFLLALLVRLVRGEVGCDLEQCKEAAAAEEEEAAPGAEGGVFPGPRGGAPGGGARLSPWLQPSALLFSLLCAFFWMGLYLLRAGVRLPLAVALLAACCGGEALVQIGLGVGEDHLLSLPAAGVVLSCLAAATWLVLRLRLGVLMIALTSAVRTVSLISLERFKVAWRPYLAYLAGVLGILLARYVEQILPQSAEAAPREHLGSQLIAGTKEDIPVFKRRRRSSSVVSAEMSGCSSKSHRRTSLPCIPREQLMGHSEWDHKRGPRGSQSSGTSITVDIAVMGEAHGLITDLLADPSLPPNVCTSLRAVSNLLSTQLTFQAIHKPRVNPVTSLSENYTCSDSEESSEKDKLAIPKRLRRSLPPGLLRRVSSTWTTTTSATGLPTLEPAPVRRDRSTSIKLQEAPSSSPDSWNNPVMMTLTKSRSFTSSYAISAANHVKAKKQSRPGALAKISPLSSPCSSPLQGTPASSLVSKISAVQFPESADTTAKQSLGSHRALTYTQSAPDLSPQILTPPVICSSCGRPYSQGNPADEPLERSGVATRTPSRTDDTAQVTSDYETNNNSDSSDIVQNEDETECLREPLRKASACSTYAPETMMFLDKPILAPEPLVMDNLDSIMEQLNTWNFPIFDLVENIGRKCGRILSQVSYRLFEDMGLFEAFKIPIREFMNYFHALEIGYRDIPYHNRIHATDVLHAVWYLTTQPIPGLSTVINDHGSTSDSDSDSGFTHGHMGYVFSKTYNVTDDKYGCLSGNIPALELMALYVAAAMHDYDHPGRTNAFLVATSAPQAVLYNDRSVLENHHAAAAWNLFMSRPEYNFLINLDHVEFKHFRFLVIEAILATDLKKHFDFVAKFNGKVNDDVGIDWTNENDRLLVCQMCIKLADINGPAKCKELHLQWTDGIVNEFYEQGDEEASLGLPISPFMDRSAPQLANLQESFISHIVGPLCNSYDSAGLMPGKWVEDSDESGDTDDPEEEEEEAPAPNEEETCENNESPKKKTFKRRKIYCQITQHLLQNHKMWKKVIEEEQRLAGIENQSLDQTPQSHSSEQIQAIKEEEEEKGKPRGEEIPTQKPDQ

SMILES: CCOc1cc(C(CS(C)(=O)=O)N2C(=O)c3cccc(NC(C)=O)c3C2=O)ccc1OC (single isomer, unassigned; (+)) [Compound A, (+)-2-[1-(3-ethoxy-4-methoxyphenyl)-2-methylsulfonylethyl]-4-acetylaminoisoindoline-1,3-dione]
- PDE Specificity Ratio PDE4/PDE3 ([1]; from above data): >1200 fold
- inhibition at 10 µM ([1]; read-out: PDE3 (% inhib at 10 µM)): 20%
- IC50 ([2]; 10 nM cAMP): 20.5 µM
- PDE Specificity Ratio PDE7 IC50/PDE4 IC50 ([2]; from above data): 279 fold
- Ataxia ([3]; 0.1 mg/kg oral): None
- Backward walking ([3]; 0.1 mg/kg oral): Mild (3/5)
- Flattened posture ([3]; 0.1 mg/kg oral): Mild (2/5)
- Lip licking ([3]; 0.1 mg/kg oral): Mild (4/5)
- Mouth clawing ([3]; 0.1 mg/kg oral): None
- Panting ([3]; 0.1 mg/kg oral): None
- Retches ([3]; 0.1 mg/kg oral): None
- Salivation ([3]; 0.1 mg/kg oral): None
- Vomits ([3]; 0.1 mg/kg oral): None
- Ataxia ([3]; 0.3 mg/kg oral): None
- Backward walking ([3]; 0.3 mg/kg oral): Mild (4/6)
- Flattened posture ([3]; 0.3 mg/kg oral): Mild (2/6)
- Lip licking ([3]; 0.3 mg/kg oral): Mild (3/6)
- Mouth clawing ([3]; 0.3 mg/kg oral): None
- Panting ([3]; 0.3 mg/kg oral): None
- Retches ([3]; 0.3 mg/kg oral): None
- Salivation ([3]; 0.3 mg/kg oral): None
- Vomits ([3]; 0.3 mg/kg oral): None
- Ataxia ([3]; 1.0 mg/kg oral): None
- Backward walking ([3]; 1.0 mg/kg oral): Mild (4/6)
- Flattened posture ([3]; 1.0 mg/kg oral): Mild (2/6)
- Lip licking ([3]; 1.0 mg/kg oral): Mild (6/6)
- Mouth clawing ([3]; 1.0 mg/kg oral): None
- Panting ([3]; 1.0 mg/kg oral): None
- Retches ([3]; 1.0 mg/kg oral): None
- Salivation ([3]; 1.0 mg/kg oral): None
- Vomits ([3]; 1.0 mg/kg oral): None
- Ataxia ([3]; 3.0 mg/kg oral): None
- Backward walking ([3]; 3.0 mg/kg oral): Moderate (5/8)
- Flattened posture ([3]; 3.0 mg/kg oral): Marked (7/8)
- Lip licking ([3]; 3.0 mg/kg oral): Mild (2/8)
- Mouth clawing ([3]; 3.0 mg/kg oral): Mild (1/8)
- Panting ([3]; 3.0 mg/kg oral): None
- Retches ([3]; 3.0 mg/kg oral): None
- Salivation ([3]; 3.0 mg/kg oral): None
- Vomits ([3]; 3.0 mg/kg oral): None
- Ataxia ([3]; 10 mg/kg oral): None
- Backward walking ([3]; 10 mg/kg oral): Marked (6/6)
- Flattened posture ([3]; 10 mg/kg oral): Marked (6/6)
- Lip licking ([3]; 10 mg/kg oral): Moderate (5/6)
- Mouth clawing ([3]; 10 mg/kg oral): Mild (1/6)
- Panting ([3]; 10 mg/kg oral): None
- Salivation ([3]; 10 mg/kg oral): Mild (1/6)
- Vomits ([3]; 10 mg/kg oral): None
- behavioral changes (severity) ([3]; 10 mg/kg, p.o.): mild or moderate
- emetic episodes (retching and vomiting) ([3]; 10 mg/kg, p.o., in 2/6 ferrets): some retching but no frank emesis
- Ataxia ([3]; 30 mg/kg oral): Mild (3/4)
- Backward walking ([3]; 30 mg/kg oral): Mild (2/4)
- Flattened posture ([3]; 30 mg/kg oral): Marked (4/4)
- Lip licking ([3]; 30 mg/kg oral): Moderate (4/4)
- Mouth clawing ([3]; 30 mg/kg oral): Marked (4/4)
- Panting ([3]; 30 mg/kg oral): Mild (1/4)
- Retches ([3]; 30 mg/kg oral): Marked (3/4)
- Salivation ([3]; 30 mg/kg oral): Moderate (3/4)
- Vomits ([3]; 30 mg/kg oral): Moderate (3/4)
- behavioral changes (severity) ([3]; 30 mg/kg, p.o.): pronounced behavioral changes
- emetic episodes (retching and vomiting) ([3]; 30 mg/kg, p.o., in 3/4 animals): moderate to marked emesis
- emetic episodes (retching and vomiting) ([3]; 0.1-3 mg/kg, p.o.): no emetic episodes
- behavioral changes (severity) ([3]; 0.1-3 mg/kg, p.o., flattened posture, lip licking and backward walking): mild
- Threshold emetic dose ([3]; conscious ferret, p.o.): 10 mg/kg
- Therapeutic index ([3]; threshold emetic dose divided by ED50 for pulmonary neutrophilia): 12
- study drug-related serious adverse events ([4]; 20 mg BID or 20 mg QD for 12 weeks): No study drug-related serious adverse events
- mean decrease in PASI from baseline [4, 5]: 52%
- proportion of subjects who achieved PASI-50 [4, 5]: 57%
- proportion of subjects who achieved PASI-90 [4, 5]: 14%
- proportion of subjects who achieved a PASI-75 ([4]; 20 mg BID, week 12/last treatment, P=0.023 vs placebo): 24%
- tolerability and safety ([4]; 12 weeks of treatment): well tolerated and safe
